Assay results reported in US7655643B2, “Antibacterial macrocycles with substituted biphenyl” (AiCuris GmbH & Co. KG, priority 2003, dated 2010).
Converted amounts (≈) assume the structure as drawn. Structures can show the parent of a compound that is named as a salt.

What was measured:
[1] = tested on: S. aureus T17; test: MIC, alternative method, agar dilution test; assay type: cell-based; details: for MIC: Staphylococcus aureus
Procedure: (§1) The minimum inhibitory concentration (MIC) is the minimum concentration of an antibiotic with which the growth of a test microbe is inhibited over 18-24 h. The inhibitor concentration can be determined by standard microbiological methods using modified medium in an agar dilution test (see, for example, the National Committee for Clinical Laboratory Standards. Methods for dilution antimicrobial susceptibility tests for bacteria that grow aerobically; approved standard-fifth edition. NCCLS document M7-A5 [ISBN 1-56238-394-9]. NCCLS, 940 West Valley Road, Suite 1400, Wayne, PA. 19087-1898 USA, 2000). The bacterial microbes are cultivated on 1.5% agar plates containing 20% defibrinated horse blood. The test microbes, which are incubated on Columbia blood agar plates (Becton-Dickinson) overnight, are diluted in PBS, adjusted to a microbe count of about 5×10^5 microbes/ml and placed as drops (1-3 μl) on test plates. The test substances contain various dilutions of the test substances (1:2 dilution stages). The cultures are incubated at 37° C. in the presence of 5% CO2 for 18-24 hours.
(§2) The lowest concentration of each substance at which no visible bacterial growth occurs is defined as the MIC and is reported in μg/ml.

[2] = tested on: S. aureus 133; test: MIC, alternative method, agar dilution test; assay type: cell-based
Procedure: as §1, §2

[3] = biological target: S. aureus 133 Translation; test: S. aureus in vitro transcription-translation assay (firefly luciferase, S30 extract); assay type: biochemical
Description: In order to construct a reporter plasmid which can be used in an in vitro transcription -translation assay from S. aureus the plasmid pBESTluc (Promega Corporation, USA) is used. The E. coli tac promoter present in this plasmid in front of the firefly luciferase is replaced by the capA1 promoter with appropriate Shine-Dalgarno sequence from S. aureus. The primers CAPFor 5′-[…] -[…]-3′ and CAPRev 5′-[…]-3′ are used for this. The primer CAPFor contains the capA1 promoter, the ribosome binding site and the 5′ region of the luciferase gene. After PCR using pBESTluc as template it is possible to isolate a PCR product which contains the firefly luciferase gene with the fused capA1 promoter. This is, after restriction with ClaI and HindIII, ligated into the vector pBESTluc which has likewise been digested with ClaI and HindIII. The resulting plasmid pla can be replicated in E. coli and be used as template in the S. aureus in vitro transcription-translation assay.
Six liters of BHI medium are inoculated with a 250 ml overnight culture of a S. aureus strain and allowed to grow at 37° C. until the OD600 nm is 2-4. The cells are harvested by centrifugation and washed in 500 ml of cold buffer A (10 mM Tris acetate, pH 8.0, 14 mM magnesium acetate, 1 mM DTT, 1 M KCl). After renewed centrifugation, the cells are washed in 250 ml of cold buffer A with 50 mM KCl, and the resulting pellets are frozen at −20° C. for 60 min. The pellets are thawed on ice in 30 to 60 min and taken up to a total volume of 99 ml in buffer B (10 mM Tris acetate, pH 8.0, 20 mM magnesium acetate, 1 mM DTT, 50 mM KCl). 1.5 ml lysostaphin (0.8 mg/ml) in buffer B are introduced into 3 precooled centrifuge cups each and each mixed with 33 ml of the cell suspension. The samples are incubated at 37° C., shaking occasionally, for 45 to 60 min, before 150 μl of a 0.5 M DTT solution are added. The lysed cells are centrifuged at 30 000×g and 4° C. for 30 min. The cell pellet is taken up in buffer B and then centrifuged again under the same conditions, and the collected supernatants are combined. The supernatants are centrifuged again under the same conditions, and 0.25 volumes of buffer C (670 mM Tris acetate, pH 8.0, 20 mM magnesium acetate, 7 mM Na3 phosphoenolpyruvate, 7 mM DTT, 5.5 mM ATP, 70 μM amino acids (complete from Promega), 75 μg of pyruvate kinase (Sigma, Germany)/ml are added to the upper ⅔ of the supernatant. The samples are incubated at 37° C. for 30 min. The supernatants are dialysed against 21 of dialysis buffer (10 mM Tris acetate, pH 8.0, 14 mM magnesium acetate, 1 mM DTT, 60 mM potassium acetate) in a dialysis tube with a 3500 Da cut-off with one buffer change at 4° C. overnight. The dialysate is concentrated to a protein concentration of about 10 mg/ml by covering the dialysis tube with cold PEG 8000 powder (Sigma, Germany) at 4° C. The S30 extracts can be stored in aliquots at −70° C.
Inhibition of protein biosynthesis of the compounds can be shown in an in vitro transcription-translation assay. The assay is based on the cell-free transcription and translation of firefly luciferase using the reporter plasmid pla as template and cell-free S30 extracts obtained from S. aureus. The activity of the resulting luciferase can be detected by luminescence measurement.
The amount of S30 extract or plasmid plato be employed must be tested anew for each preparation in order to ensure an optimal concentration in the assay. 3 μl of the substance to be tested, dissolved in 5% DMSO, are introduced into an MTP. Then 10 μl of a suitably concentrated plasmid solution p1 a are added. Then 46 μl of a mixture of 23 μl of premix (500 mM Potassium acetate, 87.5 mM Tris acetate, pH 8.0, 67.5 mM ammonium acetate, 5 mM DTT, 50 μg of folic acid/ml, 87.5 mg of PEG 8000/ml, 5 mM ATP, 1.25 mM each NTP, 20 μM each amino acid, 50 mM PEP (Na3 salt), 2.5 mM cAMP, 250 μg each E. coli tRNA/ml) and 23 μl of a suitable amount of S. aureus S30 extract are added and mixed. […]

[4] = tested on: E. faecium L4001; test: MIC, alternative method, agar dilution test; assay type: cell-based, Enterococcus faecium; details: for MIC: Enterococcus faecium
Procedure: as §1, §2

[5] = tested on: E. faecium L4001; test: MIC, liquid dilution test (96-well microtitre plate); assay type: cell-based, Enterococcus faecium
Procedure: (§3) The minimum inhibitory concentration (MIC) is the minimum concentration of an antibiotic with which the growth of a test microbe is inhibited over 18-24 h. The inhibitor concentration can in these cases be determined by standard microbiological methods (see, for example, The National Committee for Clinical Laboratory Standards. Methods for dilution antimicrobial susceptibility tests for bacteria that grow aerobically; approved standard-fifth edition. NCCLS document M7-A5 [ISBN 1-56238-394-9]. NCCLS, 940 West Valley Road, Suite 1400, Wayne, Pa. 19087-1898 USA, 2000). The MIC of the compounds of the invention is determined in the liquid dilution test on the 96-well microtitre plate scale. The bacterial microbes are cultivated in a minimal medium (18.5 mM Na2HPO4, 5.7 mM KH2PO4, 9.3 mM NH4Cl, 2.8 mM MgSO4, 17.1 mM NaCl, 0.033 μg/ml thiamine hydrochloride, 1.2 μg/ml nicotinic acid, 0.003 μg/ml biotin, 1% glucose, 25 μg/ml of each proteinogenic amino acid with the exception of phenylalanine; [H.-P. Kroll; unpublished]) with addition of 0.4% BH broth (test medium). In the case of Enterococcus faecium L4001, heat-inactivated fetal calf serum (FCS; GibcoBRL, Germany) is added to the test medium in a final concentration of 10%. Overnight cultures of the test microbes are diluted to an OD578 of 0.001(to 0.01 in the case of enterococci) in fresh test medium, and incubated 1:1 with dilutions of the test substances (1:2 dilution steps) in test medium (200 μl final volume). The cultures are incubated at 37° C. for 18-24 hours; enterococci in the presence of 5% CO2.
(§4) The lowest substance concentration in each case at which bacterial growth was no longer visible is defined as the MIC. […] The compounds show a graded antibacterial effect against most of the test microbes.

[6] = tested on: S. aureus T17; test: as above; assay type: cell-based; details: for MIC: Staphylococcus aureus, T17, read-out: MIC S. aureus T17
Procedure: as §3, §4
The S. aureus strain T17 is isolated in vivo. CFW1 mice are infected intraperitoneally with 4×10^7 S. aureus 133 cells per mouse. 0.5 h after the infection, the animals are treated intravenously with 50 mg/kg biphenomycin B. The kidneys are removed from the surviving animals on day 3 after the infection. After homogenization of the organs, the homogenates are plated out as described for RN4220Bi^R on antibiotic-free and antibiotic-containing agar plates and incubated at 37° C. overnight. […] About 20 of these colonies are tested for the biphenomycin B MIC, and a colony with an MIC of >50 μM is selected for further cultivation, and the strain is referred to as T17.

[7] = tested on: S. aureus 133; test: as above; assay type: cell-based; details: 18-24 h
Procedure: as §3, §4

[8] = tested on: S. aureus RN4220Bi^R; test: Biphenomycin B MIC of the isolated resistant colony; assay type: cell-based; details: colony isolated in vitro
Procedure: The S. aureus strain RN422OBi^R is isolated in vitro. […] Whereas about 1×10^7 cells grow on the antibiotic-free plate, about 100 colonies grow on the antibiotic-containing plate, corresponding to a resistance rate of 1×10^−5. Some of the colonies grown on the antibiotic-containing plate are tested for the biphenomycin B MIC. One colony with an MIC of >50 μM is selected for further use, and the strain is referred to as RN4220Bi^R.

[9] = T17, agar dilution, 1.5% agar with 20% defibrinated horse blood, 5% CO2, 18-24 h, read-out: MIC S. aureus T17
[10] = Staphylococcus aureus, 133, agar dilution, 1.5% agar with 20% defibrinated horse blood, 5% CO2, 18-24 h, read-out: MIC S. aureus 133
[11] = L4001, agar dilution, 1.5% agar with 20% defibrinated horse blood, 5% CO2, 18-24 h, read-out: MIC E. faecium L4001
[12] = Staphylococcus aureus, 133, minimal medium + 0.4% BH broth
[13] = Enterococcus faecium, L4001, liquid dilution, test medium with 10% FCS, 5% CO2, 18-24 h, read-out: MIC E. faecium L4001
[14] = agar dilution, 1.5% agar with 20% defibrinated horse blood, 5% CO2, 18-24 h

SMILES	MIC [1, 9] [µg/mL]	MIC [2, 10] [µg/mL]	IC50 ([3]; Table A) [nM]	IC50 ([3]; Table B) [nM]	MIC [4, 11] [µg/mL]	MIC ([5]; Enterococcus faecium, L4001, read-out: MIC E. faecium L4001) [µM]	MIC [6] [µM]	MIC [7, 12] [µM]	MIC ([1]; T17, read-out: MIC S. aureus T17) [µg/mL]	MIC ([2]; Staphylococcus aureus, 133, read-out: MIC S. aureus 133) [µg/mL]	MIC ([4]; L4001, read-out: MIC E. faecium L4001) [µg/mL]	MIC [5, 13] [µM]	MIC S. aureus T17 [1, 14] [µg/mL]	MIC S. aureus 133 [2, 14] [µg/mL]	MIC E. faecium L4001 [4, 14] [µg/mL]	MIC ([5]; liquid dilution, test medium with 10% FCS, 5% CO2, 18-24 h, read-out: MIC E. faecium L4001) [µM]	MIC, selected colony RN4220Bi^R [8] [µM]	MIC, selected colony T17 ([6]; colony isolated in vivo from mouse kidney) [µM]	MIC S. aureus T17 ([6]; liquid dilution, biphenomycin-resistant strain, 18-24 h) [µM]	MIC ([7]; minimal medium + 0.4% BH broth) [µM]
NCCNC(=O)[C@@H]1Cc2cccc(c2)-c2ccc(O)c(c2)C[C@H](N)C(=O)N[C@@H](C[C@@H](O)CN)C(=O)N1 [Example 36, (8S,11S,14S)-14-Amino-N-(2-aminoethyl)-11-[(2R) -3-amino-2-hydroxypropyl]-17-hydroxy-10,13-dioxo-9,12-diazatricyclo-[14.3.1.1^2,6]henicosa-1(20),2(21),3,5,16,18-hexaene-8-carboxamide tri(hydrotrifluoroacetate)]	2 (≈ 4.01 µM)	1 (≈ 2.01 µM)	360	360	8 (≈ 16 µM)	> 25	0.8 (≈ 0.399 µg/mL)	0.4												
NCCC[C@@H]1NC(=O)[C@@H](N)Cc2cc(ccc2O)-c2ccc(N)c(c2)C[C@@H](C(=O)NCCN)NC1=O [Example 43, (8S,11S,14S)-5,14-Diamino-N-(2-aminoethyl)-11-(3-aminopropyl)-17-hydroxy-10,13-dioxo-9,12-diazatricyclo[14.3.1.1^2,6]henicosa-1(20),2(21),3,5,16,18-hexaene-8-carboxamide tetrahydrochloride]				900					4	2	> 32									
NCCNC(=O)[C@@H]1Cc2cc(ccc2F)-c2ccc(O)c(c2)C[C@H](N)C(=O)N[C@@H](C[C@@H](O)CN)C(=O)N1 [Example 12]	1 (≈ 1.94 µM)	1 (≈ 1.94 µM)	800	800	16 (≈ 31 µM)		0.6 (≈ 0.31 µg/mL)	0.16				20 (≈ 10.3 µg/mL)								
CN1C(=O)[C@H](C[C@@H](O)CN)NC(=O)[C@@H](N)Cc2cc(ccc2O)-c2ccc(Cl)c(c2)C[C@H]1C(=O)NCC(O)CN (stereo partly drawn) [Example 9]	4 (≈ 6.93 µM)	2 (≈ 3.47 µM)	300	300	16 (≈ 27.7 µM)		0.7 (≈ 0.404 µg/mL)	0.35				11 (≈ 6.35 µg/mL)								
CN1C(=O)[C@H](CCCN)NC(=O)[C@@H](N)Cc2cc(ccc2O)-c2ccc(Cl)c(c2)C[C@H]1C(=O)NCCN(CCN)CCN [Example 42, (8S,11S,14S)-14-Amino-11-(3-aminopropyl)-N-{2-[bis(2-aminoethyl)amino]ethyl}-5-chloro-17-hydroxy-9-methyl-10,13-dioxo-9,12-diazatricyclo[14.3.1.1^2,6]henicosa-1(20),2(21)3,5,16,18-hexaene-8-carboxamide penta(hydrotrifluoroacetate)]	2 (≈ 3.24 µM)	2 (≈ 3.24 µM)		80	32 (≈ 51.8 µM)															
NC[C@H](O)C[C@@H]1NC(=O)[C@@H](N)Cc2cc(ccc2O)-c2ccc(O)c(c2)C[C@@H](C(=O)O)NC1=O [Biphenomycin B, biphenomycin B, reference compound]			1500	1500									>32	<0.03	0.5 (≈ 1.06 µM)	>25	> 50	> 50	>25	0.1
